Experimental data from ChEMBL document CHEMBL1759924, “Natural products-based insecticidal agents 9. Design, semisynthesis and insecticidal activity of 28-acyloxy derivatives of toosendanin against Mythimna separata Walker in vivo” (2011).
The source made the active and inactive calls. No cut-off for these calls is given here.

Assays:
Mythimna separata [1] = test: Insecticidal activity against Mythimna separata Walker assessed as mortality at 1 mg/mL by leaf dipping method; type: functional, organism-based; details: TDE = time-dependent effect
Mythimna separata [2] = test: Insecticidal activity against Mythimna separata Walker assessed as mortality rate at 1 mg/mL after 10 days by leaf dipping method; type: functional
Mythimna separata [3] = test: Insecticidal activity against Mythimna separata Walker assessed as mortality rate at 1 mg/mL after 20 days by leaf dipping method; type: functional
Mythimna separata [4] = test: Insecticidal activity against Mythimna separata Walker assessed as mortality rate at 1 mg/mL after 35 days by leaf dipping method; type: functional
Mythimna separata [5] = test: Insecticidal activity against Mythimna separata assessed as slim and wrinkled body during larval period upto 48 hrs; type: functional, organism-based
Mythimna separata [6] = test: Insecticidal activity against Mythimna separata larvae assessed as malformed pupae during pupation period at day 19; type: functional, organism-based
Mythimna separata [7] = test: Insecticidal activity against Mythimna separata assessed as malformed moths with imperfect wings at day 27; type: functional, organism-based

| SMILES | Activity (Mythimna separata [1]) | Activity (Mythimna separata [2]) [%] | Activity (Mythimna separata [3]) [%] | Activity (Mythimna separata [4]) [%] | Activity (Mythimna separata [5]) | Activity (Mythimna separata [6]) | Activity (Mythimna separata [7]) |
| --- | --- | --- | --- | --- | --- | --- | --- |
| CC(=O)O[C@H]1OC[C@@]23[C@H]4C(=O)[C@H](OC(C)=O)[C@@]5(C)C(c6ccoc6)C[C@H]6O[C@]65[C@]4(C)[C@H](O)C[C@H]2[C@]1(C)[C@H](OC(C)=O)C[C@@H]3O (single isomer, unassigned) | tde | 24.1 | 26.9 | 50 | Active | Active |  |
| CCC(=O)O[C@H]1OC[C@@]23[C@H]4C(=O)[C@H](OC(C)=O)[C@@]5(C)C(c6ccoc6)C[C@H]6O[C@]65[C@]4(C)[C@H](O)C[C@H]2[C@]1(C)[C@H](OC(C)=O)C[C@@H]3O (single isomer, unassigned) | tde | 24.1 | 30.8 | 53.9 | Active |  |  |
| CCCC(=O)O[C@H]1OC[C@@]23[C@H]4C(=O)[C@H](OC(C)=O)[C@@]5(C)C(c6ccoc6)C[C@H]6O[C@]65[C@]4(C)[C@H](O)C[C@H]2[C@]1(C)[C@H](OC(C)=O)C[C@@H]3O (single isomer, unassigned) | tde | 31 | 42.3 | 73.1 |  | Active |  |
| CC(=O)O[C@@H]1C[C@H](O)[C@@]23CO[C@H](OC(=O)c4ccccc4)[C@]1(C)[C@@H]2C[C@@H](O)[C@]1(C)[C@@H]3C(=O)[C@H](OC(C)=O)[C@@]2(C)C(c3ccoc3)C[C@H]3O[C@@]312 (single isomer, unassigned) | tde | 20.7 | 23.1 | 46.2 |  |  | Active |
| CC(=O)O[C@@H]1C[C@H](O)[C@@]23CO[C@H](OC(=O)c4ccc(Cl)cc4)[C@]1(C)[C@@H]2C[C@@H](O)[C@]1(C)[C@@H]3C(=O)[C@H](OC(C)=O)[C@@]2(C)C(c3ccoc3)C[C@H]3O[C@@]312 (single isomer, unassigned) | tde | 20.7 | 26.9 | 50 | Active | Active |  |
| CC(=O)O[C@@H]1C[C@H](O)[C@@]23CO[C@H](OC(=O)c4cccc(Cl)c4)[C@]1(C)[C@@H]2C[C@@H](O)[C@]1(C)[C@@H]3C(=O)[C@H](OC(C)=O)[C@@]2(C)C(c3ccoc3)C[C@H]3O[C@@]312 (single isomer, unassigned) | tde | 27.6 | 34.6 | 46.2 |  |  | Active |
| CC(=O)O[C@@H]1C[C@H](O)[C@@]23CO[C@H](OC(=O)c4ccccc4Cl)[C@]1(C)[C@@H]2C[C@@H](O)[C@]1(C)[C@@H]3C(=O)[C@H](OC(C)=O)[C@@]2(C)C(c3ccoc3)C[C@H]3O[C@@]312 (single isomer, unassigned) | tde | 20.7 | 23.1 | 38.5 | Active |  | Active |
| COc1ccc(C(=O)O[C@H]2OC[C@@]34[C@H]5C(=O)[C@H](OC(C)=O)[C@@]6(C)C(c7ccoc7)C[C@H]7O[C@]76[C@]5(C)[C@H](O)C[C@H]3[C@]2(C)[C@H](OC(C)=O)C[C@@H]4O)cc1 (single isomer, unassigned) | tde | 20.7 | 26.9 | 42.3 |  |  |  |
| CC(=O)O[C@@H]1C[C@H](O)[C@@]23CO[C@H](OC(=O)c4ccc([N+](=O)[O-])cc4)[C@]1(C)[C@@H]2C[C@@H](O)[C@]1(C)[C@@H]3C(=O)[C@H](OC(C)=O)[C@@]2(C)C(c3ccoc3)C[C@H]3O[C@@]312 (single isomer, unassigned) | tde | 24.2 | 26.9 | 42.3 |  |  | Active |
| CC(=O)O[C@@H]1C[C@H](O)[C@@]23CO[C@H](OC(=O)/C=C/c4ccccc4)[C@]1(C)[C@@H]2C[C@@H](O)[C@]1(C)[C@@H]3C(=O)[C@H](OC(C)=O)[C@@]2(C)C(c3ccoc3)C[C@H]3O[C@@]312 (single isomer, unassigned) | tde | 20.7 | 38.5 | 61.5 |  | Active |  |
| CC(=O)O[C@@H]1C[C@H](O)[C@@]23CO[C@H](OC(=O)CCc4ccccc4)[C@]1(C)[C@@H]2C[C@@H](O)[C@]1(C)[C@@H]3C(=O)[C@H](OC(C)=O)[C@@]2(C)C(c3ccoc3)C[C@H]3O[C@@]312 (single isomer, unassigned) | tde | 20.7 | 30.8 | 53.9 |  |  | Active |
| CC(=O)O[C@@H]1C[C@H](O)[C@@]23CO[C@H](OC(=O)Cc4ccccc4)[C@]1(C)[C@@H]2C[C@@H](O)[C@]1(C)[C@@H]3C(=O)[C@H](OC(C)=O)[C@@]2(C)C(c3ccoc3)C[C@H]3O[C@@]312 (single isomer, unassigned) | tde | 24.1 | 26.9 | 42.3 |  |  |  |
| CC(=O)O[C@@H]1C[C@H](O)[C@@]23CO[C@@H](O)[C@]1(C)[C@@H]2C[C@@H](O)[C@]1(C)[C@@H]3C(=O)[C@H](OC(C)=O)[C@@]2(C)[C@H](c3ccoc3)C[C@H]3O[C@]321 [TOOSENDANIN] | tde | 24.1 | 30.8 | 50 |  |  |  |
